One data set concerns the target Cytochrome P450 2D6 (Homo sapiens, UniProt P10635). The data set can be described thus: Inhibition of CYP2D6. The class given is ADME.
The target in another data set is Cytochrome P450 1A2 (Homo sapiens, UniProt P05177). The data set can be described thus: Inhibition of CYP1A2. The class given is ADME.
Data set [1] addresses Vascular endothelial growth factor receptor 2 (Homo sapiens, UniProt P35968). The experiment in a line: Inhibition of KDR.
Data set [2] deals with Platelet-derived growth factor receptor alpha (Homo sapiens, UniProt P16234). The data set can be described thus: Inhibition of PDGFRA.
The target of data set [3] is Mitogen-activated protein kinase kinase kinase 9 (Homo sapiens, UniProt P80192). The data set can be described thus: Inhibition of MLK1.
Data set [4] has as its system Canis familiaris. The data set can be described thus: Dose normalized AUC in Beagle dog at 3 mg/kg, po. The data set is classed as ADME, organism-based, Canis lupus familiaris. The arrangement: dose 3 mg/kg, route oral. The settings on record: in vivo.
Another data set has as its system Rattus norvegicus. The experiment in a line: Dose normalized AUC in CD rat at 5 mg/kg, iv. The class given is ADME, organism-based. On the set-up: dose 5 mg/kg, route intravenous. Conditions: in vivo.
The nature of data set [5]: Cmax in Beagle dog at 3 mg/kg, po. The arrangement: dose 3 mg/kg, route oral. Conditions: in vivo. The data set is classed as ADME, organism-based, Canis lupus familiaris.
A short description of data set [6]: Cmax in athymic nude mouse at 10 mg/kg, po. The data set is classed as ADME, organism-based. The arrangement: dose 10 mg/kg, route oral. The settings on record: in vivo.
A short description of data set [7]: Oral bioavailability in CD rat at 5 mg/kg. The data set is classed as ADME, organism-based. The settings on record: in vivo.
Data set [8] in a line: Half life in cynomolgus monkey at 3 mg/kg, iv. The arrangement: dose 3 mg/kg, route intravenous. The class given is ADME, organism-based, Macaca fascicularis. The settings on record: in vivo.
Data set [9] in a line: Half life in Beagle dog at 3 mg/kg, iv. The class given is ADME, organism-based, Canis lupus familiaris. The arrangement: dose 3 mg/kg, route intravenous. Conditions: in vivo.
For data set [10], the system named is Canis familiaris. The experiment in a line: Volume of distribution in Beagle dog at 3 mg/kg, po and iv. The class given is ADME, organism-based, Canis lupus familiaris. On the set-up: dose 3 mg/kg, route oral. Conditions: in vivo.
Another data set deals with Mus musculus. The data set can be described thus: Inhibition of JAK2 in HEL 92.1.7 cells xenografted in po dosed nude mouse assessed as inhibition of STAT3 phosphorylation after 4 hrs. The data set is classed as functional, organism-based.
Data set [11] in a line: Drug uptake in nude mouse xenografted with HEL 92.1.7 cells at 300 mg/kg, po after 4 hrs. The data set is classed as ADME, organism-based. On the set-up: dose 300 mg/kg, route oral. Conditions: in vivo, read-out: Drug uptake.
Data set [12] is described as follows: Plasma concentration in nude mouse xenografted with HEL 92.1.7 cells at 300 mg/kg, po after 4 hrs. The data set is classed as ADME, organism-based. The arrangement: dose 300 mg/kg, route oral.
Data set [13] deals with T1, Tyrosine-protein kinase JAK3 (Homo sapiens, UniProt P52333).
T1 sequence (P52333 whole entry): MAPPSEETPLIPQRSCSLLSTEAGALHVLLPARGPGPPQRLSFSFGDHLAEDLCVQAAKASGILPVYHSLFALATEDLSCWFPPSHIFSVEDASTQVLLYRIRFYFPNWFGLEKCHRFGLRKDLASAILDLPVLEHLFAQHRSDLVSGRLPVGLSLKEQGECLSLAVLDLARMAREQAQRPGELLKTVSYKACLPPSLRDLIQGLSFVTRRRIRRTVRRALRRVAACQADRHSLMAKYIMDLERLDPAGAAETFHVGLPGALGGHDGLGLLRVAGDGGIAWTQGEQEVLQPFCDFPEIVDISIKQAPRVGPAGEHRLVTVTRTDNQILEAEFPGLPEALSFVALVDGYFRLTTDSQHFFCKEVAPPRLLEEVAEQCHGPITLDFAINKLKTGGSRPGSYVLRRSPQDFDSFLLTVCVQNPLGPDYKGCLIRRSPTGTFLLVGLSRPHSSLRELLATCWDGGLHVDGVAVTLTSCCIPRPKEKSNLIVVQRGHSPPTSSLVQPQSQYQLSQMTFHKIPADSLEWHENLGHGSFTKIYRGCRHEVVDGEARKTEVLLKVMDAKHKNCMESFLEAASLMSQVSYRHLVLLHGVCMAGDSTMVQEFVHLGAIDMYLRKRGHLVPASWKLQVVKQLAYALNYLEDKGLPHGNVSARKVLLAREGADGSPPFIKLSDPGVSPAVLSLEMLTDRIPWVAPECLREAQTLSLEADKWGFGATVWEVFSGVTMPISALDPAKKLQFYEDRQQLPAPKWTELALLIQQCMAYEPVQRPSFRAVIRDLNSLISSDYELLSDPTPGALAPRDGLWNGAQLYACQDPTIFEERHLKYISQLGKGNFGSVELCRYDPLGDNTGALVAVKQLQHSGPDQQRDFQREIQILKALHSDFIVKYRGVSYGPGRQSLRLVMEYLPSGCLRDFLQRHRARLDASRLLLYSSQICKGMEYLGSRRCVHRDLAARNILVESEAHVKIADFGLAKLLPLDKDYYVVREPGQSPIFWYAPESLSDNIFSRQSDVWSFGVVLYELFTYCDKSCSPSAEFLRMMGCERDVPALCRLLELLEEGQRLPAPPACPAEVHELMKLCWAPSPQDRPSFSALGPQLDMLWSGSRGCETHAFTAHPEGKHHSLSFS

Consider 1 compound from ChEMBL document CHEMBL2203210, “SAR and in vivo evaluation of 4-aryl-2-aminoalkylpyrimidines as potent and selective Janus kinase 2 (JAK2) inhibitors” (Bioorg Med Chem Lett, 2012).

Some results are limits rather than exact numbers.

Chain of Vascular endothelial growth factor receptor 2 (P35968 whole entry): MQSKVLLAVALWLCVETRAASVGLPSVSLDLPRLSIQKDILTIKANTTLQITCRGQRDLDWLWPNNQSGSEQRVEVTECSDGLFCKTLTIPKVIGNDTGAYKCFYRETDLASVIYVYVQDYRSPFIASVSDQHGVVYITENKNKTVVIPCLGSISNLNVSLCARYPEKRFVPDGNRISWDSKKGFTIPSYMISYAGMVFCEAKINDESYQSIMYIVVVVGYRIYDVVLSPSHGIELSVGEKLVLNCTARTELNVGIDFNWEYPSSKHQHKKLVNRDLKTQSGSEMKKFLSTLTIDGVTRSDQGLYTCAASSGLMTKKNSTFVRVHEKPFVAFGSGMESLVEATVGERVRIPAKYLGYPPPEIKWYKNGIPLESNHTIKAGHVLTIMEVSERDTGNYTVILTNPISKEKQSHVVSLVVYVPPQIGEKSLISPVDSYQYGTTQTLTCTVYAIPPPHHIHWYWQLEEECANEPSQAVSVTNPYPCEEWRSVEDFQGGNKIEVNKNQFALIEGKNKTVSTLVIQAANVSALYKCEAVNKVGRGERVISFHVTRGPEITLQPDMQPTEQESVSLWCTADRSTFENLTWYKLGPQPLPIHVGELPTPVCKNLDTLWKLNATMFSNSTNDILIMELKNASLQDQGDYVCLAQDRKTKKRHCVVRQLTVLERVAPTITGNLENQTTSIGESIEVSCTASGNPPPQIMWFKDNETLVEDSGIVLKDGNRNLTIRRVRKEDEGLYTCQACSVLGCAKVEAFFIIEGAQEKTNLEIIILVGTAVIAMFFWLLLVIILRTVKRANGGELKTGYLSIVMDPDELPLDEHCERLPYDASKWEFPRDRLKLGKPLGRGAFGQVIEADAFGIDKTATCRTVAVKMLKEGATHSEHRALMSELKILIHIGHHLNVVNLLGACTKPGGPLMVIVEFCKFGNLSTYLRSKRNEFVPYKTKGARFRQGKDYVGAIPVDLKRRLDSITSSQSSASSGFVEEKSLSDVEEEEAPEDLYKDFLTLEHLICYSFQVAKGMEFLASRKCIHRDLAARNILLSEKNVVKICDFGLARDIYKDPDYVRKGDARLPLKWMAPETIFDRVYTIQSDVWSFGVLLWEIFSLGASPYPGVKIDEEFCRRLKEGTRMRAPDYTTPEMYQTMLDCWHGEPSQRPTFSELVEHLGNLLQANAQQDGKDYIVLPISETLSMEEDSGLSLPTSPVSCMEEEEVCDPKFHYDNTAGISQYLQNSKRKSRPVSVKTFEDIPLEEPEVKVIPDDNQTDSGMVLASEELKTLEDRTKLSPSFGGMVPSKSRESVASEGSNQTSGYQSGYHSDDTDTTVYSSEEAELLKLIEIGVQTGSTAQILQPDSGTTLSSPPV
Chain of Mitogen-activated protein kinase kinase kinase 9 (P80192 whole entry): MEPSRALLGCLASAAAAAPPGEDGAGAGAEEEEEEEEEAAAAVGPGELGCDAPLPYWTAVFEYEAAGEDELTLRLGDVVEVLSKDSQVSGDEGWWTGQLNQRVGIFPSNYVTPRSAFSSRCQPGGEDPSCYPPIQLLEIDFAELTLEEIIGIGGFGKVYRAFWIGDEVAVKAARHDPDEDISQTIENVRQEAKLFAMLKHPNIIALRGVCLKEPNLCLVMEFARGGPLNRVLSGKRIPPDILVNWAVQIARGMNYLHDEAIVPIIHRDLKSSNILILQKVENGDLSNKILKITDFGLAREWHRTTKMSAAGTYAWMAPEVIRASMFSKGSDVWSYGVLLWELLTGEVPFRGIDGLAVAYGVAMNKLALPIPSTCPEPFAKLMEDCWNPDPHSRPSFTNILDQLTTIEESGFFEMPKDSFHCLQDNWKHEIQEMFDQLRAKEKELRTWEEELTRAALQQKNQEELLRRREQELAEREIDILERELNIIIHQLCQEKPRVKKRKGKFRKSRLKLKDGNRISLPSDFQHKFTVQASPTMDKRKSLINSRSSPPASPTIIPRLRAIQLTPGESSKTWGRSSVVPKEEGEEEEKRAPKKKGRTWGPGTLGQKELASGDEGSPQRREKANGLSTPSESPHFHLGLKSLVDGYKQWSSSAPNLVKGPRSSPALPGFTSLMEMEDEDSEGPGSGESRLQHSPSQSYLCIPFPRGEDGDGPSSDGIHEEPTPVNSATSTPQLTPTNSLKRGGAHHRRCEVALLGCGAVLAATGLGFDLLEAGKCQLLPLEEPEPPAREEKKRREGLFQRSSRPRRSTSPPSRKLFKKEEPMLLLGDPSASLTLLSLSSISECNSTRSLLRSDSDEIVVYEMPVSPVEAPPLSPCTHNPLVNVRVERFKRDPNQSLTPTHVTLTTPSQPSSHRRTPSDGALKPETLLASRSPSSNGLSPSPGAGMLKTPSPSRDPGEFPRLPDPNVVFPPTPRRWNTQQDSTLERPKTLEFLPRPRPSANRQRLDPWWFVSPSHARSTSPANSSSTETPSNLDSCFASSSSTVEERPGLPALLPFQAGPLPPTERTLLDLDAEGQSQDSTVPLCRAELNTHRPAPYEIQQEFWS
Chain of Platelet-derived growth factor receptor alpha (P16234 whole entry): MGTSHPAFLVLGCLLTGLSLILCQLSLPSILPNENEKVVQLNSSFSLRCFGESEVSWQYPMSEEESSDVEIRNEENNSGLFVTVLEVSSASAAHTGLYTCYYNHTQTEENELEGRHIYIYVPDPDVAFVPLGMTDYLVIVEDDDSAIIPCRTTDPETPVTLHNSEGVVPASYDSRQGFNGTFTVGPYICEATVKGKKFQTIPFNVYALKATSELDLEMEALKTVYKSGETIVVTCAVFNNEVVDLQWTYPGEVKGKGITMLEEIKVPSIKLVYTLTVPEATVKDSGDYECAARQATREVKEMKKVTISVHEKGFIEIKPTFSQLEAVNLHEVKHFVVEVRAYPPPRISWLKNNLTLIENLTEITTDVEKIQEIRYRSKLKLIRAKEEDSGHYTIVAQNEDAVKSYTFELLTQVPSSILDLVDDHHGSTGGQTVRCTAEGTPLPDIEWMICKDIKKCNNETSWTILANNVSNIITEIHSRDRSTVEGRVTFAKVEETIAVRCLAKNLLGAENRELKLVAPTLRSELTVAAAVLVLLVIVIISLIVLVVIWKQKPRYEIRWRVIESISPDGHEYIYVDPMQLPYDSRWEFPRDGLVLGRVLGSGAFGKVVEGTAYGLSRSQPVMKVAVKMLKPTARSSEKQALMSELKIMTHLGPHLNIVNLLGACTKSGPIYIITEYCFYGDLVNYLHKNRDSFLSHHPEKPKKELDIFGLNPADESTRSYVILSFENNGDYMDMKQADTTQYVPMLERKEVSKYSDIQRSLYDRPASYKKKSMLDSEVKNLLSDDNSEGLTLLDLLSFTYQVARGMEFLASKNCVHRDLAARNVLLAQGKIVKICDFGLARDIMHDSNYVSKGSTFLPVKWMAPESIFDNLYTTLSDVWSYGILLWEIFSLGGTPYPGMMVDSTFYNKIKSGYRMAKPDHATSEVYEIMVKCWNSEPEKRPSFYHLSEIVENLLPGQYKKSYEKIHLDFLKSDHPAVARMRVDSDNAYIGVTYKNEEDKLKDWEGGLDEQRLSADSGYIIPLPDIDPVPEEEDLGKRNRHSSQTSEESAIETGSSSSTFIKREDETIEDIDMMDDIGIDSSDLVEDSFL
Chain of Cytochrome P450 2D6 (P10635 whole entry): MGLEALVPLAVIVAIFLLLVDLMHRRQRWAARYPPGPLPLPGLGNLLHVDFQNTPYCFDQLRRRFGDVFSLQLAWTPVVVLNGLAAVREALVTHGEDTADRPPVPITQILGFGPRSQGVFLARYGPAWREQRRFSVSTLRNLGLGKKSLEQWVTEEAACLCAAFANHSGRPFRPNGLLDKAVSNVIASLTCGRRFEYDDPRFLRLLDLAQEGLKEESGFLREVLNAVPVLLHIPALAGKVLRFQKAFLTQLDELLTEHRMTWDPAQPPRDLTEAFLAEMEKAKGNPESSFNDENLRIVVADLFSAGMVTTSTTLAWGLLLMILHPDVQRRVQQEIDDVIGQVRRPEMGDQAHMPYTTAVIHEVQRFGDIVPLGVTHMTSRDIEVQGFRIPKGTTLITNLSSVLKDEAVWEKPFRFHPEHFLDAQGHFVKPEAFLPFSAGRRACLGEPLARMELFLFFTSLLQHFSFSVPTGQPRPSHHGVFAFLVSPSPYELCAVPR
Chain of Cytochrome P450 1A2 (P05177 whole entry): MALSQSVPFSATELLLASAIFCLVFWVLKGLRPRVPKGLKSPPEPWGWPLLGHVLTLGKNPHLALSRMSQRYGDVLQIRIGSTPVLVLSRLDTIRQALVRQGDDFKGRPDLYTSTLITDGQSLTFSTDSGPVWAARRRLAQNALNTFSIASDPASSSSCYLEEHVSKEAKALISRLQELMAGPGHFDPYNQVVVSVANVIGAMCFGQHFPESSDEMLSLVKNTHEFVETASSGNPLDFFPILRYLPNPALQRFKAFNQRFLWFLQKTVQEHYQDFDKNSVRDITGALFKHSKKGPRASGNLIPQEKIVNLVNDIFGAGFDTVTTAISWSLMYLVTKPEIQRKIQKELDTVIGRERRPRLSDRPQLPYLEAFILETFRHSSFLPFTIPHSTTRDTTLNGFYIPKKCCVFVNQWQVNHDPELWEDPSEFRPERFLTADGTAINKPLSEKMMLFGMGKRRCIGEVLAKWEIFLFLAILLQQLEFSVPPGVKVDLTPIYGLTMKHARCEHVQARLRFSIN

As a reminder, the IC50 is the concentration needed to halve the response being measured. What is called Cmax is the highest concentration seen after dosing. What is called bioavailability is the share of a dose that reaches the circulation, judged against a reference dose that is usually intravenous. A word on the half-life: it is the time in which the quantity being followed falls by half. The ED50 is the dose at which the effect has come halfway, by size or by number of responders. For `O=C(Nc1ccc(-c2ccnc(Nc3ccc(N4CCOCC4)cc3)n2)cc1)[C@H]1CCCN1`, the INH result at Cytochrome P450 2D6 and at Cytochrome P450 1A2 was “>= 20 uM” each time. Further, the IC50 in data set [1] is 484 nM; in [2], 547 nM; in data set [3] it was 370 nM; in the data set with Mus musculus, 13000 nM; in [13] it was 214 nM. The AUC/dose turned out to be 0.68 µM·kg·h/mg with Canis familiaris [4] and 15.99 µM·kg·h/mg with Rattus norvegicus. Moreover, the Cmax in data set [5] was determined as 0.17 µM; in data set [6] it was 0.57 µM. The bioavailability in [7] is 53.6%. For the same compound, the half-life in data set [8] is 3.28 h; in [9], 6 h. The compound further came in with a Vd in the data set on Canis familiaris [10] of 13.4 L/kg. Moreover, the ED50 in the data set with Mus musculus (po) is 210 mg/kg. The concentration at 4 h in data set [11] worked out at 62.4 µM; in [12], 20.2 µM.
